Species on record: Rattus norvegicus
Assay: Open TG-GATES - Regimen: Single
Type: toxicity, organism-based, Sprague-Dawley
Parameters: regimen Single, gender Male, age 6 weeks
Details: in vivo, po, route gavage; for APTT / Bas / Eos / Fbg / Hb / Ht / Lym / MCH / MCHC / MCV / Mono / Neu / Plat / RBC / Ret / WBC: tissue Blood; for KIDNEY_L / KIDNEY_R / KIDNEY_TOTAL: tissue Kidney; for LIVER: tissue Liver; for ALP / ALT / AST / CRE / DBIL / GLC / IP / K / LDH / Na / PL / RALB / TBIL / TC / TG / TP / gamma-GTP: tissue Plasma
[1] = 100 mg/kg, 24 h, dose level Low
[2] = 300 mg/kg, 3 h, dose level Middle
[3] = 300 mg/kg, 6 h, dose level Middle
[4] = 300 mg/kg, 9 h, dose level Middle
[5] = 300 mg/kg, 24 h, dose level Middle

CN(C)CCC=C1c2ccccc2COc2ccccc21 [DOXEPIN]
TERMINAL_BW (100 mg/kg, 9 h, dose level Low): 193.4 g | APTT (100 mg/kg, 9 h, dose level Low): 24.3 s | Bas (100 mg/kg, 9 h, dose level Low): 0% | Eos (100 mg/kg, 9 h, dose level Low): 0.8% | Fbg (100 mg/kg, 9 h, dose level Low): 284.4 mg/dL | Hb (100 mg/kg, 9 h, dose level Low): 13.5 g/dL | Ht (100 mg/kg, 9 h, dose level Low): 40.9% | Lym (100 mg/kg, 9 h, dose level Low): 80.4% | MCH (100 mg/kg, 9 h, dose level Low): 21.9 pg | MCHC (100 mg/kg, 9 h, dose level Low): 32.9% | MCV (100 mg/kg, 9 h, dose level Low): 66.5 fL | Mono (100 mg/kg, 9 h, dose level Low): 2.4% | Neu (100 mg/kg, 9 h, dose level Low): 16% | Plat (100 mg/kg, 9 h, dose level Low): 117.4 x10_4/uL | RBC (100 mg/kg, 9 h, dose level Low): 614.6 x10_4/ul | Ret (100 mg/kg, 9 h, dose level Low): 8.5% | WBC (100 mg/kg, 9 h, dose level Low): 81.6 x10_2/uL | KIDNEY_L (100 mg/kg, 9 h, dose level Low): 0.9 g | KIDNEY_R (100 mg/kg, 9 h, dose level Low): 0.9 g | KIDNEY_TOTAL (100 mg/kg, 9 h, dose level Low): 1.8 g | LIVER (100 mg/kg, 9 h, dose level Low): 7.7 g | ALP (100 mg/kg, 9 h, dose level Low): 1637.2 IU/L | ALT (100 mg/kg, 9 h, dose level Low): 33.8 IU/L | AST (100 mg/kg, 9 h, dose level Low): 69.4 IU/L | CRE (100 mg/kg, 9 h, dose level Low): 0.2 mg/dL | DBIL (100 mg/kg, 9 h, dose level Low): 0.002 mg/dL | GLC (100 mg/kg, 9 h, dose level Low): 167 mg/dL | IP (100 mg/kg, 9 h, dose level Low): 10.4 mg/dL | K (100 mg/kg, 9 h, dose level Low): 4 meq/L | LDH (100 mg/kg, 9 h, dose level Low): 99.6 IU/L | Na (100 mg/kg, 9 h, dose level Low): 144.8 meq/L | PL (100 mg/kg, 9 h, dose level Low): 135 mg/dL | RALB (100 mg/kg, 9 h, dose level Low): 2.5 g/dL | TBIL (100 mg/kg, 9 h, dose level Low): 0.062 mg/dL | TC (100 mg/kg, 9 h, dose level Low): 72.6 mg/dL | TG (100 mg/kg, 9 h, dose level Low): 26.6 mg/dL | TP (100 mg/kg, 9 h, dose level Low): 5.3 g/dL | gamma-GTP (100 mg/kg, 9 h, dose level Low): 1 IU/L | TERMINAL_BW [1]: 208.9 g | APTT [1]: 17.3 s | Bas [1]: 0% | Eos [1]: 0.8% | Fbg [1]: 264.6 mg/dL | Hb [1]: 14 g/dL | Ht [1]: 41.3% | Lym [1]: 78.2% | MCH [1]: 21.9 pg | MCHC [1]: 34% | MCV [1]: 64.4 fL | Mono [1]: 2.6% | Neu [1]: 17.4% | Plat [1]: 125.2 x10_4/uL | RBC [1]: 641.6 x10_4/ul | Ret [1]: 7.3% | WBC [1]: 97.7 x10_2/uL | KIDNEY_L [1]: 0.9 g | KIDNEY_R [1]: 0.9 g | KIDNEY_TOTAL [1]: 1.8 g | ALP [1]: 2097.8 IU/L | ALT [1]: 45 IU/L | AST [1]: 75.8 IU/L | CRE [1]: 0.2 mg/dL | DBIL [1]: 0.006 mg/dL | GLC [1]: 176.4 mg/dL | IP [1]: 7.5 mg/dL | K [1]: 4 meq/L | LDH [1]: 112.6 IU/L | Na [1]: 142 meq/L | PL [1]: 155.8 mg/dL | RALB [1]: 2.6 g/dL | TBIL [1]: 0.04 mg/dL | TC [1]: 80.4 mg/dL | TG [1]: 101 mg/dL | TP [1]: 5.6 g/dL | gamma-GTP [1]: 1 IU/L | TERMINAL_BW [2]: 198.6 g | APTT [2]: 17.8 s | Bas [2]: 0.2% | Eos [2]: 0.4% | Fbg [2]: 275.2 mg/dL | Hb [2]: 12.9 g/dL | Ht [2]: 40% | Lym [2]: 73% | MCH [2]: 21.7 pg | MCHC [2]: 32.1% | MCV [2]: 67.4 fL | Mono [2]: 3.2% | Neu [2]: 22.4% | Plat [2]: 112.8 x10_4/uL | RBC [2]: 593.6 x10_4/ul | Ret [2]: 10% | WBC [2]: 63.7 x10_2/uL | KIDNEY_L [2]: 0.9 g | KIDNEY_R [2]: 0.9 g | KIDNEY_TOTAL [2]: 1.8 g | LIVER [2]: 9 g | ALP [2]: 1422.6 IU/L | ALT [2]: 48 IU/L | AST [2]: 76.6 IU/L | CRE [2]: 0.1 mg/dL | DBIL [2]: 0.002 mg/dL | GLC [2]: 187.4 mg/dL | IP [2]: 10 mg/dL | K [2]: 3.9 meq/L | LDH [2]: 71.2 IU/L | Na [2]: 145.6 meq/L | PL [2]: 147.6 mg/dL | RALB [2]: 2.4 g/dL | TBIL [2]: 0.044 mg/dL | TC [2]: 78.6 mg/dL | TG [2]: 64.6 mg/dL | TP [2]: 5.3 g/dL | gamma-GTP [2]: 1.2 IU/L | TERMINAL_BW [3]: 194.4 g | APTT [3]: 17.3 s | Bas [3]: 0.2% | Eos [3]: 0.8% | Fbg [3]: 290 mg/dL | Hb [3]: 12.9 g/dL | Ht [3]: 40% | Lym [3]: 74.2% | MCH [3]: 21.3 pg | MCHC [3]: 32.4% | MCV [3]: 66 fL | Mono [3]: 3% | Neu [3]: 21% | Plat [3]: 126.3 x10_4/uL | RBC [3]: 605.6 x10_4/ul | Ret [3]: 9.5% | WBC [3]: 84.5 x10_2/uL | KIDNEY_L [3]: 0.9 g | KIDNEY_R [3]: 0.9 g | KIDNEY_TOTAL [3]: 1.8 g | LIVER [3]: 7.8 g | ALP [3]: 1630.2 IU/L | ALT [3]: 42.2 IU/L | AST [3]: 83.2 IU/L | CRE [3]: 0.1 mg/dL | DBIL [3]: 0 mg/dL | GLC [3]: 185 mg/dL | IP [3]: 11.1 mg/dL | K [3]: 3.7 meq/L | LDH [3]: 85.2 IU/L | Na [3]: 146.2 meq/L | PL [3]: 141.6 mg/dL | RALB [3]: 2.5 g/dL | TBIL [3]: 0.054 mg/dL | TC [3]: 82.6 mg/dL | TG [3]: 11.2 mg/dL | TP [3]: 5.4 g/dL | gamma-GTP [3]: 1.4 IU/L | TERMINAL_BW [4]: 192.2 g | APTT [4]: 17.8 s | Bas [4]: 0% | Eos [4]: 1% | Fbg [4]: 275 mg/dL | Hb [4]: 13.2 g/dL | Ht [4]: 39.9% | Lym [4]: 77.6% | MCH [4]: 21.9 pg | MCHC [4]: 33% | MCV [4]: 66.4 fL | Mono [4]: 2.6% | Neu [4]: 18.4% | Plat [4]: 130.9 x10_4/uL | RBC [4]: 603.6 x10_4/ul | Ret [4]: 9.4% | WBC [4]: 76.7 x10_2/uL | KIDNEY_L [4]: 0.9 g | KIDNEY_R [4]: 0.9 g | KIDNEY_TOTAL [4]: 1.7 g | LIVER [4]: 7.6 g | ALP [4]: 1517.4 IU/L | ALT [4]: 38.2 IU/L | AST [4]: 64.8 IU/L | CRE [4]: 0.1 mg/dL | DBIL [4]: 0.002 mg/dL | GLC [4]: 184 mg/dL | IP [4]: 10.4 mg/dL | K [4]: 3.9 meq/L | LDH [4]: 74.2 IU/L | Na [4]: 145.2 meq/L | PL [4]: 142 mg/dL | RALB [4]: 2.5 g/dL | TBIL [4]: 0.06 mg/dL | TC [4]: 79.2 mg/dL | TG [4]: 12.2 mg/dL | TP [4]: 5.5 g/dL | gamma-GTP [4]: 1 IU/L | TERMINAL_BW [5]: 185.6 g | APTT [5]: 16.9 s | Bas [5]: 0% | Eos [5]: 0.8% | Fbg [5]: 277.2 mg/dL | Hb [5]: 14.8 g/dL | Ht [5]: 43.9% | Lym [5]: 81.2% | MCH [5]: 22 pg | MCHC [5]: 33.8% | MCV [5]: 65.2 fL | Mono [5]: 2.2% | Neu [5]: 15.6% | Plat [5]: 130.7 x10_4/uL | RBC [5]: 672.8 x10_4/ul | Ret [5]: 7.4% | WBC [5]: 65.5 x10_2/uL | KIDNEY_L [5]: 0.9 g | KIDNEY_R [5]: 0.9 g | KIDNEY_TOTAL [5]: 1.8 g | LIVER [5]: 7.3 g | ALP [5]: 1482.6 IU/L | ALT [5]: 31.8 IU/L | AST [5]: 59 IU/L | CRE [5]: 0.2 mg/dL | DBIL [5]: 0 mg/dL | GLC [5]: 173.2 mg/dL | IP [5]: 9.1 mg/dL | K [5]: 4.1 meq/L | LDH [5]: 87 IU/L | Na [5]: 144.6 meq/L | PL [5]: 131.8 mg/dL | RALB [5]: 2.6 g/dL | TBIL [5]: 0.046 mg/dL | TC [5]: 74.4 mg/dL | TG [5]: 30.6 mg/dL | TP [5]: 5.7 g/dL | gamma-GTP [5]: 1 IU/L
